# Measurements as given in the supplement of paper PMC11208160.
# Assay: recombinant UMI read abundance after kanamycin selection (control-corrected) (log10(CPM+1)); higher = more efficient recombination; extreme values may be limits of the assay; sequences stand for … in AGTGCAGAGAAAATCGGCCAGTTTTCTCTGCCTGCAGTCCGCATGCCGTGGGACCCCTTGGGTTCTAACCTGTTGCCTAGATTTATGCAGCGGACTGCCTTTCTCCCAAAGTGATAAACCGG…AGGTTGGTTTCACT; site = the 11-nt donor
# Procedure, shortened: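 Under IPTG (0.07 mM) plus kanamycin, or without selection, Escherichia coli carrying a UMI-tagged donor and donor-binding-loop pair library and a target plasmid for the IS621 bridge recombinase were plated in two replicates. Recombinant UMIs were PCR-amplified across the donor–target junction and sequenced. Counts were converted to CPM, averaged over replicates, scaled by control-derived factors and reported as log10(CPM+1).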
# 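Note: IS621 bridge recombinase in Escherichia coli cells against a fixed T5 target plasmid.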
row,Sequence,recombinant UMI read abundance (log10)
1,ATCCAGGCATGGACCGGTTTTCCCGGTAATCCGTATTTGAG (site ATCCAAGCTCT),0.547
2,ATCCAGGCATGGACCGGTTTTCCCGGTAATCCGTATTTGAG (site ATCCACGCTCT),0.013
3,ATCCAGGCATGGACCGGTTTTCCCGGTAATCCGTATTTGAG (site ATCCAGGCTCT),0
4,ATCCAGGCATGGACCGGTTTTCCCGGTAATCCGTATTTGAG (site ATCCATGCTCT),0.382
5,ATCCAGGCATGGACCGGTTTTCCCGGTAATCCGTATTTGCC (site ATCCAGGCTGG),0
6,ATCCATACATGGACCGGTTTTCCCGGTAATCCGTATTTGAC (site ATCAATACTGT),0
7,ATCCATACATGGACCGGTTTTCCCGGTAATCCGTATTTGAC (site ATCCATACTGT),1.77
8,ATCCATACATGGACCGGTTTTCCCGGTAATCCGTATTTGAC (site ATCGATACTGT),0
9,ATCCATACATGGACCGGTTTTCCCGGTAATCCGTATTTGAC (site ATCTATACTGT),0
10,ATCCCCTCATGGACCGGTTTTCCCGGTAATCCGTATTTGGA (site ATCCCCTCTTC),1.95
11,ATCCCGGCATGGACCGGTTTTCCCGGTAATCCGTATTTGAG (site CGAAGCCCTAG),0
12,ATCCGACCATGGACCGGTTTTCCCGGTAATCCGTATTTGTC (site ATCCGACCTGA),0
13,ATCCTTTCATGGACCGGTTTTCCCGGTAATCCGTATTTGAC (site AACCTTTCTGT),0
14,ATCCTTTCATGGACCGGTTTTCCCGGTAATCCGTATTTGAC (site ACCCTTTCTGT),0
15,ATCCTTTCATGGACCGGTTTTCCCGGTAATCCGTATTTGAC (site AGCCTTTCTGT),0
16,ATCCTTTCATGGACCGGTTTTCCCGGTAATCCGTATTTGAC (site ATCCTTTCTGT),0
17,ATCGAATCATGGACCGGTTTTCCCGGTAATCCGTATTTGAA (site ATCGAATCTTT),2.58
18,ATCGCCTCATGGACCGGTTTTCCCGGTAATCCGTATTTGGG (site ATCGCCTCTCC),0.29
19,ATCGCGTCATGGACCGGTTTTCCCGGTAATCCGTATTTGAA (site ATCGCGTCTTT),2.01
20,ATCGTGCCATGGACCGGTTTTCCCGGTAATCCGTATTTGTT (site ATCGTGCCTAA),0.0076
21,ATCTAAACATGGACCGGTTTTCCCGGTAATCCGTATTTGAC (site ATCTAAACTGT),2.72
22,ATCTAAACATGGACCGGTTTTCCCGGTAATCCGTATTTGAC (site ATCTACACTGT),0.25
23,ATCTAAACATGGACCGGTTTTCCCGGTAATCCGTATTTGAC (site ATCTAGACTGT),0
24,ATCTAAACATGGACCGGTTTTCCCGGTAATCCGTATTTGAC (site ATCTATACTGT),0.00453
25,ATCTACACATGGACCGGTTTTCCCGGTAATCCGTATTTGAC (site ATCTAAACTGT),1.21

row,Sequence,recombinant UMI read abundance (log10)
1,ATCTACACATGGACCGGTTTTCCCGGTAATCCGTATTTGAC (site ATCTACACTGT),2.83
2,ATCTACACATGGACCGGTTTTCCCGGTAATCCGTATTTGAC (site ATCTAGACTGT),0
3,ATCTACACATGGACCGGTTTTCCCGGTAATCCGTATTTGAC (site ATCTATACTGT),0.824
4,ATCTAGACATGGACCGGTTTTCCCGGTAATCCGTATTTGAG (site ATCTAGACTCT),1.31
5,ATCTAGGCATGGACCGGTTTTCCCGGTAATCCGTATTTGGC (site ATATAGGCTGC),0
6,ATCTAGGCATGGACCGGTTTTCCCGGTAATCCGTATTTGGC (site ATCTAGGCTGC),0
7,ATCTAGGCATGGACCGGTTTTCCCGGTAATCCGTATTTGGC (site ATGTAGGCTGC),0
8,ATCTAGGCATGGACCGGTTTTCCCGGTAATCCGTATTTGGC (site ATTTAGGCTGC),0
9,ATCTATACATGGACCGGTTTTCCCGGTAATCCGTATTTGAG (site ATCTATACTAT),0.478
10,ATCTATACATGGACCGGTTTTCCCGGTAATCCGTATTTGAG (site ATCTATACTCT),1.31
11,ATCTATACATGGACCGGTTTTCCCGGTAATCCGTATTTGAG (site ATCTATACTGT),0
12,ATCTATACATGGACCGGTTTTCCCGGTAATCCGTATTTGAG (site ATCTATACTTT),0.0268
13,ATCTATACATGGACCGGTTTTCCCGGTAATCCGTATTTGGC (site ATCTATACTGA),1.09
14,ATCTATACATGGACCGGTTTTCCCGGTAATCCGTATTTGGC (site ATCTATACTGC),2.23
15,ATCTATACATGGACCGGTTTTCCCGGTAATCCGTATTTGGC (site ATCTATACTGG),0
16,ATCTATACATGGACCGGTTTTCCCGGTAATCCGTATTTGGC (site ATCTATACTGT),2.09
17,ATCTGTACATGGACCGGTTTTCCCGGTAATCCGTATTTGAC (site ATCTATACTGT),0
18,ATCTGTACATGGACCGGTTTTCCCGGTAATCCGTATTTGAC (site ATCTCTACTGT),0
19,ATCTGTACATGGACCGGTTTTCCCGGTAATCCGTATTTGAC (site ATCTGTACTGT),1.31
20,ATCTGTACATGGACCGGTTTTCCCGGTAATCCGTATTTGAC (site ATCTTTACTGT),0
21,ATCTGTCCATGGACCGGTTTTCCCGGTAATCCGTATTTGAT (site ATCTGTCCTAT),0.0326
22,ATGAAGGCATGGACCGGTTTTCCCGGTAATCCGTATTTGCA (site AGGAAGACTTG),0.763
23,ATGAAGGCATGGACCGGTTTTCCCGGTAATCCGTATTTGCA (site ATGAAGGCTTG),2.91
24,ATGACACCATGGACCGGTTTTCCCGGTAATCCGTATTTGGT (site ATGACACCTAC),0.0397
25,ATGATCCCATGGACCGGTTTTCCCGGTAATCCGTATTTGCC (site ATGATCCCTGG),0

row,Sequence,recombinant UMI read abundance (log10)
1,ATGCACGCATGGACCGGTTTTCCCGGTAATCCGTATTTGGG (site AAGCACGCTCC),0.017
2,ATGCACGCATGGACCGGTTTTCCCGGTAATCCGTATTTGGG (site ACGCACGCTCC),0.0179
3,ATGCACGCATGGACCGGTTTTCCCGGTAATCCGTATTTGGG (site AGGCACGCTCC),0.0274
4,ATGCACGCATGGACCGGTTTTCCCGGTAATCCGTATTTGGG (site ATGCACGCTCC),0.239
5,ATGCAGCCATGGACCGGTTTTCCCGGTAATCCGTATTTGAG (site ATGCAGCCTCT),0.00247
6,ATGCCCGCATGGACCGGTTTTCCCGGTAATCCGTATTTGCA (site ATGCCCGCTTG),2.01
7,ATGCCGACATGGACCGGTTTTCCCGGTAATCCGTATTTGCA (site ATGCCGACTTG),1.91
8,ATGCGAGCATGGACCGGTTTTCCCGGTAATCCGTATTTGCT (site ATGCGAGCTAG),2.5
9,ATGCTTGCATGGACCGGTTTTCCCGGTAATCCGTATTTGCT (site ATGCTTGCTAG),0.679
10,ATGGAAACATGGACCGGTTTTCCCGGTAATCCGTATTTGCA (site ATGGAAACTTG),2.32
11,ATGGAAACATGGACCGGTTTTCCCGGTAATCCGTATTTGCA (site CTGGAAACTTG),1.6
12,ATGGAAACATGGACCGGTTTTCCCGGTAATCCGTATTTGCA (site GTGGAAACTTG),0
13,ATGGAAACATGGACCGGTTTTCCCGGTAATCCGTATTTGCA (site TTGGAAACTTG),0.684
14,ATGGCATCATGGACCGGTTTTCCCGGTAATCCGTATTTGCG (site ATGGCATCTCG),2.06
15,ATGGCATCATGGACCGGTTTTCCCGGTAATCCGTATTTGCT (site ATGGCATCTAG),1.83
16,ATGGCCGCATGGACCGGTTTTCCCGGTAATCCGTATTTGGC (site ATGGCCGCTGC),2.53
17,ATGGTCCCATGGACCGGTTTTCCCGGTAATCCGTATTTGAC (site ATGGTCCCTGT),1.87
18,ATGGTCGCATGGACCGGTTTTCCCGGTAATCCGTATTTGAC (site ATGGTCGCTGT),3.13
19,ATGTACACATGGACCGGTTTTCCCGGTAATCCGTATTTGAG (site ATGTACACTCT),1.6
20,ATGTAGGCATGGACCGGTTTTCCCGGTAATCCGTATTTGGT (site ATGTAGGCTAC),1.27
21,ATGTAGGCATGGACCGGTTTTCCCGGTAATCCGTATTTGGT (site ATGTAGGCTCC),0.0125
22,ATGTAGGCATGGACCGGTTTTCCCGGTAATCCGTATTTGGT (site ATGTAGGCTGC),1.73
23,ATGTAGGCATGGACCGGTTTTCCCGGTAATCCGTATTTGGT (site ATGTAGGCTTC),0.0176
24,ATGTCGCCATGGACCGGTTTTCCCGGTAATCCGTATTTGCC (site ATGTCGCCTGG),0
25,ATGTCGGCATGGACCGGTTTTCCCGGTAATCCGTATTTGTC (site ATGTCGGCTGA),2.23
